ChEMBL document CHEMBL5724696, “Autophagy assay results for EUbOPEN Chemogenomics Library” (2024)

Assays:
U2OS [1] = assay: (§1) Here: values are normalized to the positive (DMSO; basel flux = defined as 100% suppression) and negative (250nM Torin1; mTOR inhibitor; maximal inducer of autophagy defined as 0% suppression) control compounds and represented as % of ER-phagy suppression. […] The impact of autophagy induction on cells is complex and depends on the affected target. […] Of note, treatment concentrations may be sub-optimal for specific compounds, leading to false negative annotations.; format: functional, Homo sapiens; details: Compound Concentration 1 uM, Culturing Media DMEM, 1 % Penicillin/Streptomycin, 10% Fetal bovin serum Add-On: blasticidin, Screening Media Control DMEM, 10% Fetal bovin serum Add-On: 1 µg/ml Doxycyclin, Screening Media Samples DMEM, 10% Fetal bovin serum Add-On: 1 µg/ml Doxycyclin 250nM Torin1
U2OS [2] = assay: as §1; format: functional, Homo sapiens; details: Compound Concentration 1 uM, Culturing Media DMEM, 1 % Penicillin/Streptomycin, 10% Fetal bovin serum Add-On: blasticidin, Screening Media Control DMEM, 10% Fetal bovin serum Add-On: 1 µg/ml Doxycyclin, Screening Media Samples DMEM, 10% Fetal bovin serum Add-On: 1 µg/ml Doxycyclin 250nM Torin1; remark: listed apart in the source

Row | SMILES | ER-phagy suppression (U2OS [1]; Timepoint 12 hours) | ER-phagy suppression (U2OS [1]; Timepoint 24 hours) | ER-phagy suppression (U2OS [1]; Timepoint 36 hours) | ER-phagy suppression (U2OS [1]; Timepoint 54 hours) | ER-phagy suppression (U2OS [2]; Timepoint 12 hours) | ER-phagy suppression (U2OS [2]; Timepoint 24 hours) | ER-phagy suppression (U2OS [2]; Timepoint 36 hours) | ER-phagy suppression (U2OS [2]; Timepoint 60 hours)
1 | CC1=C(C#N)C(c2ccc3[nH]nc(C)c3c2)C(C#N)=C(C)N1 [BAY-474] | -13.4419% | -18.7669% | -19.5327% | -10.8689% | -4.1838% | 7.362% | 15.2848% | 16.6513%
2 | C[C@@H](N)[C@H]1CC[C@H](C(=O)Nc2ccncc2)CC1.Cl.Cl | -40.2837% | -57.1688% | -58.7515% | -55.2677% | -1.165% | -12.4028% | 0.04526% | 2.669%
3 | Cn1cc(-c2ccc3nnc(Sc4ccc5ncccc5c4)n3n2)cn1 [SGX-523] | -11.2391% | -26.6862% | -36.424% | -40.7928% | 6.2538% | 0.9511% | 4.373% | 11.7711%
4 | CN1CCN(C(=O)C(C)(C)c2ccc(C(=O)Nc3cn4cc(-c5cc(C(C)(C)C)cc(C(C)(C)C)c5)ccc4n3)cc2)CC1 [T3-CLK-N] | -1.207% | -16.3306% | -17.7073% | -17.4198% | 2.466% | 0.7117% | -6.9152% | -11.2006%
5 | CN1CCN(Cc2ccc(Nc3ncc(Cl)c(Nc4ccccc4S(=O)(=O)N(C)C)n3)cc2)CC1 [DUBERMATINIB] | -2.878% | -1.86% | 7.295% | 21.9101% | -20.0629% | 4.178% | 12.5384% | 29.2244%
6 | Cc1ccc(-c2cnc([C@@]3(O)CC[C@H](C(=O)O)C(C)(C)C3)s2)cc1Nc1cccc(C(F)(F)F)n1 [MRL-SYKi-NC] | -2.6288% | -19.3711% | -27.7592% | -26.2542% | -10.2062% | -4.2474% | -12.4056% | -6.238%
7 | Cc1ccc(NC(=O)Nc2cc(C(F)(F)F)ccc2F)cc1Nc1ccc2c(c1)NC(=O)/C2=C\c1ccc[nH]1 | -7.664% | -22.8744% | -24.0512% | -22.1975% | 18.743% | -2.579% | -6.116% | -1.261%
8 | O=C(NCc1cccc(O)c1)Nc1nc(-c2ccncc2)cs1 | -63.2417% | -37.1145% | 6.149% | 46.7933% | 38.3546% | 42.4931% | 43.3897% | 45.9293%
9 | O=c1cc(N2CCOCC2)oc2c(-c3cccc4c3sc3ccccc34)cccc12 | 29.2209% | 24.7237% | 22.7043% | 31.557% | 23.1915% | 21.6983% | 3.92% | -4.5%
10 | CCn1c(=O)c(-c2ccc(Cl)cc2Cl)cc2cnc(Nc3ccc(N4CCNCC4)c(F)c3)nc21 | -49.4743% | -41.9787% | -21.5083% | -6.286% | 36.4408% | 60.1254% | 62.8115% | 76.8114%
11 | CCN(Cc1ccc(Cl)cc1)c1ncc(C(=O)NCCCN2CCCC2=O)c(NC2CCCC2)n1 | -0.9186% | -13.7517% | -21.2457% | -16.9406% | 19.3372% | 13.3398% | 3.8795% | -6.981%
